Test results: patent US20190241660A1, “IMMUNE-STIMULATING PEPTIDES AND CHECKPOINT INHIBITORS, AND USES THEREOF FOR TREATING CANCER” (INTENDET SERVICES, LLC, priority 2017, published 2019)

Experiments:
[1] = tested on: immune cell profile in peripheral blood; experiment: Immune profiles of peripheral blood by FACS analysis in lymphoma bearing mice; type: in vivo, C57BL/6 mice
From the text: (§1) In this study the immune cell profile in tumors and blood in lymphoma bearing mice was compared for a 3 times weekly dose of INT-151 and anti-CTLA-4 alone to the combination of 3 times weekly INT-151 plus anti-CTLA-4.
(§2) On day 17 after treatment began, when tumors reached a volume of 500-600 mm^3, mice were sacrificed and tumors and blood was collected for Fluorescent Activated Cell Sorting (FACS) analysis to determine the following immune cell types as listed in the table below:
(§3) Animals were to be monitored individually. Randomization into treatment groups was conducted when tumors reached an average of 43 mm^3 (n=6). Mice were euthanized after 17 days to collect tumors and blood for FACS analysis.

[2] = tested on: E.G7-OVA murine lymphoma cells; experiment: Pilot dose response study, INT-151 once vs 3× weekly alone and with anti-CTLA-4 (E.G7-OVA-e215 protocol)
[3] = tested on: immune cell profile in tumors; experiment: Immune profiles of tumors by FACS analysis in lymphoma bearing mice; type: in vivo, C57BL/6 mice
From the text: as §1, §2, §3

[4] = tested on: E.G7-OVA murine lymphoma cells; experiment: E.G7-OVA syngeneic mouse lymphoma model, INT-151 with anti-CTLA-4 (E.G7-OVA-e214 protocol)
[5] = tested on: E.G7-OVA murine lymphoma cells; experiment: Tumor volume in immune cell profile study of established tumors (E.G7-OVA-e217 protocol); type: in vivo, C57BL/6 mice; conditions: at study end; INT-151 100 μg/animal 3 times a week; anti-CTLA-4 100 μg then 50 μg ×2; n=6; FIG. 6
From the text: as §1, §2, §3

T cell = conditions: in the presence of tetanus toxoid or concanavalin A; Sinha 1988; cited from earlier work
[6] = INT-151 100 μg/animal 1× weekly (alone or with anti-CTLA-4 days 6, 9, 12), only animals with tumor take
[7] = INT-151 100 μg/animal 3× weekly (alone or with anti-CTLA-4), only animals with tumor take
[8] = INT-151 in combination with anti-CTLA-4

Molecule: N[C@@H](Cc1ccc(O)cc1)C(=O)NCC(=O)O [INT-151, tyrosyl-glycine]
- CD4+ T cell population ([1]; compared to controls, FIG. 8): did not affect
- CD8+ T cell population ([1]; compared to controls, FIG. 8): did not affect
- M1 macrophage population ([1]; compared to controls, FIG. 8): unchanged
- M2 macrophage population ([1]; compared to controls, FIG. 8): elevated
- Monocytic myeloid suppressor cells ([1]; compared to controls, FIG. 8): not affected
- granulocytic MDSCs ([1]; compared to controls, FIG. 8): reduced
- regulatory T cells ([1]; compared to controls, FIG. 8): did not affect
- total macrophage population ([1]; compared to controls, FIG. 8): increased
- ratio of CD8+T/Treg ([1]; controls 8.4): 6.4
- % Alive on day 26 [2, 6]: 100%
- % Alive on day 29 [2, 6]: 100%
- % Alive on day 33 [2, 6]: 60%
- % Alive on day 36 [2, 6]: 20%
- % Alive on day 43 [2, 6]: 0%
- % Alive on day 26 [2, 7]: 100%
- % Alive on day 29 [2, 7]: 100%
- % Alive on day 33 [2, 7]: 80%
- % Alive on day 36 [2, 7]: 40%
- % Alive on day 40 [2, 7]: 30%
- % Alive on day 43 [2, 7]: 0%
- clinical improvement (median tumor volume and survival) ([2]; INT-151 3 times weekly, alone or with anti-CTLA-4, FIG. 5): greater clinical improvement
- synergy with anti-CTLA-4 on survival [2, 8]: synergizes
- tolerability ([2]; each treatment group): well tolerated
- CD4+T cells ([3]; compared to controls, FIG. 7): unchanged
- CD8+ T cell population ([3]; compared to controls, FIG. 7): did not affect
- M1 macrophage population ([3]; compared to controls, FIG. 7): decreased
- M2 macrophage population ([3]; compared to controls, FIG. 7): increasing
- granulocytic myeloid suppressor cells ([3]; compared to controls, FIG. 7): unchanged
- regulatory T cells ([3]; compared to controls, FIG. 7): did not affect
- ratio of CD8+T/Treg ([3]; control group 3.2): 2.5
- synergy with anti-CTLA-4 on survival [4, 8]: acts synergistically
- overall survival ([4]; compared to control, FIG. 3, FIG. 4): not INT-151, demonstrated improved overall survival
- body-weight (clinical improvement) ([4]; compared to untreated Group 1, FIG. 2): slight positive clinical improvement
- median tumor volume growth / tumor size ([4]; compared to untreated Group 1, INT-151 100 μg/animal i.p. weekly from Day 6, anti-CTLA-4 Days 6, 9, 12, FIG. 1): slight positive clinical improvement
- Median tumor volumes [5]: 831.0 mm^3

Molecule: CC(C)CC(NC(=O)C(Cc1ccccc1)NC(=O)CNC(=O)CNC(=O)C(N)Cc1ccc(O)cc1)C(=O)O (stereo not shown) [leu-enkephalin, tyr-gly-gly-phe-leu]
- T cell proliferation (T cell): elicit T cell proliferation

Molecule: tyr-gly-gly-phe-met [met-enkephalin]
- T cell proliferation (T cell): elicit T cell proliferation
